Patent US12728116B2, “Methods of treating multiple sclerosis” (Vanda Pharmaceuticals Inc., priority 2021, dated 2026)

Columns and labels:
Assay type in all cases: in vivo, human
[1] = tested on: adult subjects with relapsing MS; experiment: Treatment-emergent adverse events (Safety Set); conditions: for AESI effect on heart rate and rhythm (including hypotension) on Day 1: subjects with at least one AE, %: Day 1 (ponesimod dose 2 mg);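 as to all read-outs here: safety Set comprises every randomized subject given one or more doses, analysed by the treatment actually received rather than the assigned arm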
Description: The Safety Set (SAF) included all randomized subjects who received at least one dose of study treatment. Subjects were analyzed based on actual treatment taken, not randomized treatment.

[2] = tested on: adult subjects with relapsing MS; experiment: Time to first 12-week / 24-week confirmed disability accumulation (CDA) on EDSS; conditions: ponesimod 20 mg, teriflunomide 14 mg
Description: Secondary efficacy variables and testing strategy: Four secondary efficacy endpoints were analyzed as per the statistical testing strategy outlined in FIG. 1. • Change from baseline to Week 108 in fatigue-related symptoms as measured by the symptoms domain of the FSIQ-RMS patient-reported outcome [Fatigue] • Cumulative number of combined unique active lesions from baseline to Week 108 on brain MRI [CUALs] • Time to first 12-week confirmed disability accumulation (CDA) from baseline to EOS on Expanded Disability Status Scale (EDSS) [12-week CDA] • Time to first 24-week CDA from baseline to EOS on EDSS [24-week CDA]
(§1) A 12-week CDA is an increase of at least 1.5 in EDSS for subjects with a baseline EDSS score of 0.0 or an increase of at least 1.0 in EDSS for subjects with a baseline EDSS score of 1.0 to 5.0, or an increase of at least 0.5 in EDSS for subjects with a baseline EDSS score≥5.5 which is to be confirmed after 12 weeks.
All EDSS measurements (with or without relapse, at a scheduled or unscheduled visit) were used to determine the onset of disability accumulation. However, EDSS scores used for confirmation of disability accumulation were obtained at a scheduled visit (i.e., unscheduled visits cannot be used as confirmatory visits) outside any ongoing relapse. In this context, relapse duration is defined as period between start and end dates if available and limited to 90 days from onset if end date is not available or duration is longer than 90 days.
In order to confirm that the EDSS increase is persistent, all EDSS measurements between the onset and the 12-week EDSS confirmation (minus 7-day visit time-window) need to show an increase in EDSS, meeting the criteria for accumulation of disability as defined above.
as §1, with “24-week” for “12-week”, “24” for “12”
In order to confirm that the EDSS increase is persistent, all EDSS measurements between the onset and the 24-week EDSS confirmation (minus 7-day visit time-window) need to show an increase in EDSS, meeting the criteria for accumulation of disability as defined above.

[3] = tested on: adult subjects with relapsing MS; experiment: Confirmed relapses up to EOS - annualized relapse rate (ARR), phase III study; conditions: Full Analysis Set
Description: Primary efficacy variable/primary timepoint: The primary endpoint was annualized relapse rate (ARR) up to the end of study (EOS) defined as the number of confirmed relapses per subject-year. All available data up to EOS, regardless of treatment discontinuation was included (ITT approach).
A generalized linear model with negative binomial distribution was fitted for the primary efficacy endpoint ARR. Two-sided hypotheses were expressed in terms of the model parameters μP20 mg and μT14 mg.
The primary statistical analysis of the ARR endpoint was performed on the FAS using a negative binomial model for confirmed relapses, with the stratification variables prior use of disease-modifying therapies (DMTs) and EDSS category as well as the number of relapses in the year prior to study entry, included in the model and time in the study as an offset variable. Sensitivity analyses was performed on the PPS and also based on different subgroups derived from baseline variables.
A relapse is defined as new, worsening or recurrent neurological symptoms that occur at least 30 days after the onset of a preceding relapse, and that last at least 24 hours, in the absence of fever or infection.
A relapse was confirmed by the treating neurologist only when the subjects' symptoms were accompanied by an increase in EDSS/FS (functional system) scores, which were consistent with the subject's symptoms, from a previous clinically stable EDSS/FS assessment (i.e., performed at least 30 days after the onset of any previous relapse), obtained by the efficacy assessor and consistent with the following: • An increase of at least half a step (0.5 points; unless EDSS=0, then an increase of at least 1.0 points is required) or • An increase of at least 1.0 point in at least two FS scores, or • An increase of at least 2.0 points in at least one FS score (excluding bladder/bowel and cerebral).
The primary statistical analysis was performed up to EOS on the FAS using a negative binomial regression model for confirmed relapses, with treatment as a factor and the binary stratification variables (EDSS≤3.5 versus EDSS>3.5; DMTs within last 2 years prior to randomization [Yes/No]) and the number of relapses in the year prior to study entry (categories≤1 (or missing) and […]) included in the model. The model also included an offset variable defined as the log of time on study (in years) from randomization up to EOS.
This subgroup analysis examined patients with EDSS≤3 (up to moderate disability in one function, or mild disability in three or four functions; no impairment to walking), and/or who were treatment naïve.
ARR differences and mean number of CUALs were examined using a negative binomial regression model with adjusting for the log time in the study (in years) as an offset.

[4] = ponesimod 20 mg, teriflunomide 14 mg
[5] = treatment-emergent AESI, Safety Set
[6] = treatment-emergent AESI, Safety Set, listed as teriflunomide
[7] = treatment-emergent, Safety Set, listed as teriflunomide

Structure (SMILES): C/C(O)=C(\C#N)C(=O)Nc1ccc(C(F)(F)F)cc1 [Teriflunomide, reference compound]
- AESI effect on heart rate and rhythm (including hypotension) on Day 1: subjects with at least one AE, % ([1]; Safety Set): (0.4) %
- AESI effect on heart rate and rhythm (including hypotension) on Day 1: subjects with at least one AE, % ([1]; Safety Set, listed as teriflunomide): 0.4%
- Day 1 AESI PT Electrocardiogram QT prolonged, % ([1]; Day 1, Safety Set): (0.2) %
- Day 1 AESI PT Presyncope, % ([1]; Day 1, Safety Set): (0.2) %
- TEAE ALT increased, subjects [1, 4]: 9.4%
- TEAE headache, subjects [1, 4]: 12.7%
- TEAE nasopharyngitis, subjects [1, 4]: 16.8%
- TEAE upper respiratory tract infection, subjects [1, 4]: 10.4%
- AESI category Effect on heart rate and rhythm (including aypotension), % [1, 5]: (4.2) %
- AESI category Hepatobiliary disorders/Liver enzyme abnormality, % [1, 5]: (14.5) %
- AESI category Herpetic infection, % [1, 5]: (4.8) %
- AESI category Hypertension, % [1, 5]: (9.0) %
- AESI category Macular edema, % [1, 5]: (0.2) %
- AESI category Non-skin malignancy, % [1, 5]: (0.2) %
- AESI category Pulmonary events, % [1, 5]: (2.7) %
- AESI category Seizure, % [1, 5]: (0.2) %
- AESI category Skin malignancy, % [1, 5]: (0.2) %
- AESI category Hepatobiliary disorders/Liver enzyme abnormality, % [1, 6]: 14.5%
- AESI category Hypertension, % [1, 6]: 9.0%
- AESI category Pulmonary events, % [1, 6]: 2.7%
- AESI category Infection, % ([1]; treatment-emergent AESI, only if reported as serious or severe, Safety Set): (0.9) %
- AEs leading to premature discontinuation, SOC Blood and lymphatic system disorders, % ([1]; treatment-emergent, Safety Set): (0.4) %
- AEs leading to premature discontinuation, SOC Cardiac disorders, % ([1]; treatment-emergent, Safety Set): (0.4) %
- AEs leading to premature discontinuation, SOC Gastrointestinal disorders, % ([1]; treatment-emergent, Safety Set): (0.7) %
- AEs leading to premature discontinuation, SOC General disorders and administration site conditions, % ([1]; treatment-emergent, Safety Set): (0.4) %
- AEs leading to premature discontinuation, SOC Hepatobiliary disorders, % ([1]; treatment-emergent, Safety Set): (0.4) %
- AEs leading to premature discontinuation, SOC Investigations, % ([1]; treatment-emergent, Safety Set): (1.8) %
- AEs leading to premature discontinuation, SOC Musculoskeletal and connective tissue disorders, % ([1]; treatment-emergent, Safety Set): (0.2) %
- AEs leading to premature discontinuation, SOC Neoplasms benign, malignant and unspecified (incl cysts and polyps), % ([1]; treatment-emergent, Safety Set): (0.2) %
- AEs leading to premature discontinuation, SOC Nervous system disorders, % ([1]; treatment-emergent, Safety Set): (0.7) %
- AEs leading to premature discontinuation, SOC Pregnancy, puerperium and perinatal conditions, % ([1]; treatment-emergent, Safety Set): (0.5) %
- AEs leading to premature discontinuation, SOC Psychiatric disorders, % ([1]; treatment-emergent, Safety Set): (0.2) %
- AEs leading to premature discontinuation, SOC Reproductive system and breast disorders, % ([1]; treatment-emergent, Safety Set): (0.2) %
- AEs leading to premature discontinuation, SOC Skin and subcutaneous tissue disorders, % ([1]; treatment-emergent, Safety Set): (0.4) %
- AEs leading to premature discontinuation, SOC Social circumstances, % ([1]; treatment-emergent, Safety Set): (0.2) %
- AEs leading to premature discontinuation, SOC Surgical and medical procedures, % ([1]; treatment-emergent, Safety Set): (0.2) %
- Subjects with at least one AE leading to study drug discontinuation, % ([1]; treatment-emergent, Safety Set): (6.0) %
- Subjects with at least one AE, % ([1]; treatment-emergent, Safety Set): (88.2) %
- Subjects with at least one Drug-Related AE, % ([1]; treatment-emergent, Safety Set): (42.0) %
- Subjects with at least one Fatal AE, % ([1]; treatment-emergent, Safety Set): (0.4) %
- Subjects with at least one Serious AE, % ([1]; treatment-emergent, Safety Set): (8.1) %
- Subjects with at least one Severe AE, % ([1]; treatment-emergent, Safety Set): (4.6) %
- Subjects with at least one AE leading to study drug discontinuation, % [1, 7]: 6.0%
- Subjects with at least one AE, % [1, 7]: 88.2%
- Subjects with at least one Serious AE, % [1, 7]: 8.1%
- Subjects with a 12-week CDA up to EOS [2]: 12.4%
- Subjects with a 24-week CDA up to EOS ([2]; exploratory): 9.9%
- Raw ARR [3]: 0.303
- Total number of relapses (confirmed, up to EOS) ([3]; total time 1119 / 1137 years): 344
- Mean estimate (ARR), confirmed relapses up to EOS, negative binomial regression [3, 4]: 0.290
